Source: US20240207263A1, “SELECTIVE MODULATORS OF ATAXIA TELA[…] (ATM) KINASE AND USES THEREOF” (priority 2021, published 2024)
Like-named read-outs stand apart in the source and are kept apart here.

What was measured:
aldehyde oxidase (AO) [1] = molecular target: T1, aldehyde oxidase (AO) (Homo sapiens (Human), UniProt Q06278); assay: in vitro
Protocol: All calculations were carried out using Microsoft Excel. Peak areas were determined from extracted ion chromatograms. The slope value, k, was determined by linear regression of the natural logarithm of the remaining percentage of the parent drug vs. incubation time curve.

[2] = molecular target: ATM (phospho-ATM Ser1981) in SN38 treated HT-29 cells (Homo sapiens (Human), UniProt Q13315); assay: cell-based; details: HT-29 cells, SN-38; read-out: SN-38 HT-29 cellular IC50
Protocol: Assay g): ATM SN-38 HT-29 Cellular Potency
SN38 causes single strand DNA breaks (SSBs) which are converted to double strand breaks (DSBs) during replication. ATM plays role of repairing DSBs. Inhibition of ATM was evaluated in SN38 treated HT-29 cells (ATCC, Cat #HTB-38) by high-Content Imaging System
The graphical views were then generated using Prism 7.0 (Graphpad).

ATM = ATM (Homo sapiens (Human), UniProt Q13315); assay: biochemical; assay type: biochemical; details: read-out: ATM IC50
Description: Assay a): ATM Biochemical Potency
Data was collected by Caliper.

PIK3Cγ (pp110γ) = PIK3Cγ (pp110γ) (Homo sapiens (Human), UniProt P48736); assay: PI3K biochemical potency assay (Assay c), PIK3Cγ
Protocol: Assay c): PI3K Biochemical Potency
(§1) 2.5 μl of kinase solution was added to each well of the 384-well assay plate, which contains 2.5 μl of compounds with serially diluted concentration. 2× substrate solution was prepared with PIP2 substrate and ATP in 1× kinase reaction buffer at 2-fold of the final concentration of each reagent in the assay. 5 μl of substrate solution was added to each well of the assay plate to start reaction. The assay plate was incubated at room temperature for 1 hour. 5 μl reaction mix was transferred to a new 384 well plate. 5 μl of ADP-Glo reagent (Promega, Cat. No. v9102/3) was added to each well of the new assay plate to stop the reaction. The plate was shaken slowly and equilibrated for 40 minutes. 10 μl kinase detection reagents were added to each well, which was equilibrated for 60 minutes before read on a plate reader (Envision) for luminescence.

PIK3Cδ = PIK3Cδ (Homo sapiens (Human), UniProt O00329); assay: PI3K biochemical potency assay (Assay c), PIK3Cδ
Protocol: Assay c): PI3K Biochemical Potency
as §1

DNA-PK = DNA-PK (Homo sapiens (Human), UniProt P78527); assay: DNA-PK biochemical assay (Assay e)
Protocol: Assay e): DNA-PK Biochemical Assay
The final concentration: Substrate 0.2 ug/ml and ATP 20 uM. […] The plate was equilibrated for 2 hr at room temperature.

[3] = tested on: phosp-KAP1 in MCF-7 cells; assay: phosp-KAP1 MCF-7 cellular potency assay (Assay f); assay type: cell-based; details: Homo sapiens, MCF7; MCF-7 cells, etoposide; read-out: Etoposide MCF-7 cellular IC50
Protocol: Assay f): phosp-KAP1 MCF-7 Cellular Potency
MCF-7 cells were seeded to a 384-well cell-culture plate, 25 μl/well which were incubated at 37° C. and 5% CO2 for 24 hr. Test compounds were added to the 384-well plates. Etoposide at final concentration of 100 μM was then added to each well except Vehicle control wells, which were incubated at 37° C. and 5% CO2 for 1 hour. After medium removal, cells were fixed by the addition of 25 μl/well of 8% paraformaldehyde in PBSA and incubated for 20 minutes at room temperature. After the plates were rinsed 3 times with PBSA, 50 ul permeabilization buffer (0.1% Triton X-100 in PBS) was added and the plates were incubated for 20 minutes at room temperature. After the plates were rinsed with PBSA, block the cells by adding 50 μl of Odyssey Blocking Buffer in 384-well plate and then incubate for 1.5 hours at room temperature. Remove blocking buffer by Plate washer (BioTek ELx405 select CW). […] The plates were rinsed 5 times with PBST (0.1% Tween-20 in PBS).
• 1) Fluorescence intensity (FI) was detected for each well. • 2) % inhibition is calculated as follow:
[formula] • FIpositive: The average FI for the positive controls across the plate. • FIvehicle: The average FI for negative controls across the plate. • 3) Calculate IC50 and Plot effect-dose curve of compounds: • Calculate IC50 by fitting % inhibition values and log of compound concentrations to nonlinear regression (dose response−variable slope) with Graphpad prism 6.0.
Y=Bottom+(Top−Bottom)/(1+10^((Log IC50−X)*HillSlope)) • X: log of compounds concentration; Y: % inhibition

PIK3Cβ (p110β) = PIK3Cβ (p110β) (Homo sapiens (Human), UniProt P42338); assay: PI3K biochemical potency assay (Assay c), PIK3Cβ
Protocol: Assay c): PI3K Biochemical Potency
as §1

ATR = ATR (Homo sapiens (Human), UniProt Q13535); assay: ATR biochemical potency assay (Assay b)
Protocol: Assay b): ATR Biochemical Potency
The plate was incubated at room temperature for 10 minutes. 2× peptide solutions were prepared with FAM-labeled peptide and ATP in the 1× kinase base buffer. […] 40 μl of stop buffer was added to stop reaction. Data were collected by Caliper.

PI3Kα (p110α/p85a) = PI3Kα (p110α/p85a) (Homo sapiens (Human), UniProt P42336); assay: PI3K biochemical potency assay (Assay c), PI3Kα
Protocol: Assay c): PI3K Biochemical Potency
as §1

mTOR = mTOR (Homo sapiens (Human), UniProt P42345); assay: mTOR biochemical potency assay (Assay d)
Protocol: Assay d): mTOR Biochemical Potency
Solution of mTOR enzymes (Millipore, Cat. No. 14-770) was prepared in 1× kinase buffer at 4-fold of the final concentration (final concentration: 6 nM) in the assay. 2.5 μl of kinase solution was added to each well of the 384-well assay plate, which contains 2.5 μl of compounds with serially diluted concentration. 2× substrate solution was prepared with ULight-4E-BP1 (Thr37/46) Peptide (PE, Cat. No. TRF0128-M) and ATP in 1× kinase reaction buffer at 2-fold of the final concentration of each reagent in the assay. 5 μl of substrate solution was added to each well of the assay plate to start reaction. The assay plate was incubated at room temperature for 30 minutes. Detection solution of kinase quench buffer (EDTA) and Eu-anti-phospho-4E-BP1 antibody (Thr37/46) (PE, Cat. No. TRF0216-M) were prepared at 2-fold the desired final concentrations of each reagent in Lance detection buffer. 10 μl of detection solution buffer was added to each well of the assay plate.

aldehyde oxidase (AO) [4] = molecular target: T1, aldehyde oxidase (AO); details: reference compounds of the human liver cytosolic system; cited from earlier work
[5] = cited from earlier work; for clearance in humans: Zientek et al. 2010

Chain of PI3Kα (p110α/p85a) (P42336 whole entry, looked up): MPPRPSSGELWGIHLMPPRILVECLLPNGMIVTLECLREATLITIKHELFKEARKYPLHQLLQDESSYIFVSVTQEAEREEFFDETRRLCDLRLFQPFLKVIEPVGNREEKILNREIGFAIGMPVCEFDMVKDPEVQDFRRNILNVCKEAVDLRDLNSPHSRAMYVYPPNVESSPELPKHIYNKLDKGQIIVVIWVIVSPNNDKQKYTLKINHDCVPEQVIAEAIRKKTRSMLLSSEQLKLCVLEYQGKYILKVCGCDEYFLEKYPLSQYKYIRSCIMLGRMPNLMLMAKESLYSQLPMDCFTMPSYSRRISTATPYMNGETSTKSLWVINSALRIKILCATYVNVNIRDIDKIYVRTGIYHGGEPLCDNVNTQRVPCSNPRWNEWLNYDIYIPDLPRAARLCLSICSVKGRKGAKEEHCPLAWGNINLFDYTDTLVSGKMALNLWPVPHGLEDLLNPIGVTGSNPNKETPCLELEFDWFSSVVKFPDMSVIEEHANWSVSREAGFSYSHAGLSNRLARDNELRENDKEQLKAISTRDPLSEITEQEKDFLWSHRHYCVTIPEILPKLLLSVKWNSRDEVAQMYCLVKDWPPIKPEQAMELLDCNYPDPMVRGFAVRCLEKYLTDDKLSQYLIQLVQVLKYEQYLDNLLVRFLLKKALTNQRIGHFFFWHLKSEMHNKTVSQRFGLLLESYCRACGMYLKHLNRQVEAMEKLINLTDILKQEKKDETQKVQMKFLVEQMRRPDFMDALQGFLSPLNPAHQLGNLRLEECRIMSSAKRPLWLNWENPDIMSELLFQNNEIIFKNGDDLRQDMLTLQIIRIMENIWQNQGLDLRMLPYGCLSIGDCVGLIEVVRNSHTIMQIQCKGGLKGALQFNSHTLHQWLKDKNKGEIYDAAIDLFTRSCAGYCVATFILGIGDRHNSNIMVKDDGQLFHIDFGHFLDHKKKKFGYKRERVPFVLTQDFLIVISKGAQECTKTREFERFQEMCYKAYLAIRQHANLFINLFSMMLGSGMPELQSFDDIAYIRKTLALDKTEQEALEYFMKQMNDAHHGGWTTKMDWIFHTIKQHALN
Chain of PI3Kα (p110α/p85a) (P27986 whole entry partner, looked up): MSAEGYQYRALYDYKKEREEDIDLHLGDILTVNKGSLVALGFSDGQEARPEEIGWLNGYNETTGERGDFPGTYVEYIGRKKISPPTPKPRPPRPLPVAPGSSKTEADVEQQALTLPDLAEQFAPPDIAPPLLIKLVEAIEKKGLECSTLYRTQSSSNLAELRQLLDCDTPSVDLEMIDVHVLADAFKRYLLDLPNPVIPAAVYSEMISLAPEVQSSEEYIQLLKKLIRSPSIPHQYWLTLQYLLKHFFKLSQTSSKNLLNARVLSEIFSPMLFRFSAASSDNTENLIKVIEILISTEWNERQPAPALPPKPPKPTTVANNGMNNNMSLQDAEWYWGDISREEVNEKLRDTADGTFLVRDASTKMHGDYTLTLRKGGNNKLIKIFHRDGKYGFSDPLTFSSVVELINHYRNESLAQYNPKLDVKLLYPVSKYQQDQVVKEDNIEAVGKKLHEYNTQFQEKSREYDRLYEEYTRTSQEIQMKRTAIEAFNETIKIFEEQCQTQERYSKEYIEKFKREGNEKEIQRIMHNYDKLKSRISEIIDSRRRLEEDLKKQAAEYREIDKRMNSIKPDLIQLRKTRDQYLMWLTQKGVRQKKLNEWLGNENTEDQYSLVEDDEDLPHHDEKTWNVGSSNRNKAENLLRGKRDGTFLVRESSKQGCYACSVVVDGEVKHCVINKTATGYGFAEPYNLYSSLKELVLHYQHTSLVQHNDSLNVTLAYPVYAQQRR
Chain of ATM (Q13315 whole entry, looked up): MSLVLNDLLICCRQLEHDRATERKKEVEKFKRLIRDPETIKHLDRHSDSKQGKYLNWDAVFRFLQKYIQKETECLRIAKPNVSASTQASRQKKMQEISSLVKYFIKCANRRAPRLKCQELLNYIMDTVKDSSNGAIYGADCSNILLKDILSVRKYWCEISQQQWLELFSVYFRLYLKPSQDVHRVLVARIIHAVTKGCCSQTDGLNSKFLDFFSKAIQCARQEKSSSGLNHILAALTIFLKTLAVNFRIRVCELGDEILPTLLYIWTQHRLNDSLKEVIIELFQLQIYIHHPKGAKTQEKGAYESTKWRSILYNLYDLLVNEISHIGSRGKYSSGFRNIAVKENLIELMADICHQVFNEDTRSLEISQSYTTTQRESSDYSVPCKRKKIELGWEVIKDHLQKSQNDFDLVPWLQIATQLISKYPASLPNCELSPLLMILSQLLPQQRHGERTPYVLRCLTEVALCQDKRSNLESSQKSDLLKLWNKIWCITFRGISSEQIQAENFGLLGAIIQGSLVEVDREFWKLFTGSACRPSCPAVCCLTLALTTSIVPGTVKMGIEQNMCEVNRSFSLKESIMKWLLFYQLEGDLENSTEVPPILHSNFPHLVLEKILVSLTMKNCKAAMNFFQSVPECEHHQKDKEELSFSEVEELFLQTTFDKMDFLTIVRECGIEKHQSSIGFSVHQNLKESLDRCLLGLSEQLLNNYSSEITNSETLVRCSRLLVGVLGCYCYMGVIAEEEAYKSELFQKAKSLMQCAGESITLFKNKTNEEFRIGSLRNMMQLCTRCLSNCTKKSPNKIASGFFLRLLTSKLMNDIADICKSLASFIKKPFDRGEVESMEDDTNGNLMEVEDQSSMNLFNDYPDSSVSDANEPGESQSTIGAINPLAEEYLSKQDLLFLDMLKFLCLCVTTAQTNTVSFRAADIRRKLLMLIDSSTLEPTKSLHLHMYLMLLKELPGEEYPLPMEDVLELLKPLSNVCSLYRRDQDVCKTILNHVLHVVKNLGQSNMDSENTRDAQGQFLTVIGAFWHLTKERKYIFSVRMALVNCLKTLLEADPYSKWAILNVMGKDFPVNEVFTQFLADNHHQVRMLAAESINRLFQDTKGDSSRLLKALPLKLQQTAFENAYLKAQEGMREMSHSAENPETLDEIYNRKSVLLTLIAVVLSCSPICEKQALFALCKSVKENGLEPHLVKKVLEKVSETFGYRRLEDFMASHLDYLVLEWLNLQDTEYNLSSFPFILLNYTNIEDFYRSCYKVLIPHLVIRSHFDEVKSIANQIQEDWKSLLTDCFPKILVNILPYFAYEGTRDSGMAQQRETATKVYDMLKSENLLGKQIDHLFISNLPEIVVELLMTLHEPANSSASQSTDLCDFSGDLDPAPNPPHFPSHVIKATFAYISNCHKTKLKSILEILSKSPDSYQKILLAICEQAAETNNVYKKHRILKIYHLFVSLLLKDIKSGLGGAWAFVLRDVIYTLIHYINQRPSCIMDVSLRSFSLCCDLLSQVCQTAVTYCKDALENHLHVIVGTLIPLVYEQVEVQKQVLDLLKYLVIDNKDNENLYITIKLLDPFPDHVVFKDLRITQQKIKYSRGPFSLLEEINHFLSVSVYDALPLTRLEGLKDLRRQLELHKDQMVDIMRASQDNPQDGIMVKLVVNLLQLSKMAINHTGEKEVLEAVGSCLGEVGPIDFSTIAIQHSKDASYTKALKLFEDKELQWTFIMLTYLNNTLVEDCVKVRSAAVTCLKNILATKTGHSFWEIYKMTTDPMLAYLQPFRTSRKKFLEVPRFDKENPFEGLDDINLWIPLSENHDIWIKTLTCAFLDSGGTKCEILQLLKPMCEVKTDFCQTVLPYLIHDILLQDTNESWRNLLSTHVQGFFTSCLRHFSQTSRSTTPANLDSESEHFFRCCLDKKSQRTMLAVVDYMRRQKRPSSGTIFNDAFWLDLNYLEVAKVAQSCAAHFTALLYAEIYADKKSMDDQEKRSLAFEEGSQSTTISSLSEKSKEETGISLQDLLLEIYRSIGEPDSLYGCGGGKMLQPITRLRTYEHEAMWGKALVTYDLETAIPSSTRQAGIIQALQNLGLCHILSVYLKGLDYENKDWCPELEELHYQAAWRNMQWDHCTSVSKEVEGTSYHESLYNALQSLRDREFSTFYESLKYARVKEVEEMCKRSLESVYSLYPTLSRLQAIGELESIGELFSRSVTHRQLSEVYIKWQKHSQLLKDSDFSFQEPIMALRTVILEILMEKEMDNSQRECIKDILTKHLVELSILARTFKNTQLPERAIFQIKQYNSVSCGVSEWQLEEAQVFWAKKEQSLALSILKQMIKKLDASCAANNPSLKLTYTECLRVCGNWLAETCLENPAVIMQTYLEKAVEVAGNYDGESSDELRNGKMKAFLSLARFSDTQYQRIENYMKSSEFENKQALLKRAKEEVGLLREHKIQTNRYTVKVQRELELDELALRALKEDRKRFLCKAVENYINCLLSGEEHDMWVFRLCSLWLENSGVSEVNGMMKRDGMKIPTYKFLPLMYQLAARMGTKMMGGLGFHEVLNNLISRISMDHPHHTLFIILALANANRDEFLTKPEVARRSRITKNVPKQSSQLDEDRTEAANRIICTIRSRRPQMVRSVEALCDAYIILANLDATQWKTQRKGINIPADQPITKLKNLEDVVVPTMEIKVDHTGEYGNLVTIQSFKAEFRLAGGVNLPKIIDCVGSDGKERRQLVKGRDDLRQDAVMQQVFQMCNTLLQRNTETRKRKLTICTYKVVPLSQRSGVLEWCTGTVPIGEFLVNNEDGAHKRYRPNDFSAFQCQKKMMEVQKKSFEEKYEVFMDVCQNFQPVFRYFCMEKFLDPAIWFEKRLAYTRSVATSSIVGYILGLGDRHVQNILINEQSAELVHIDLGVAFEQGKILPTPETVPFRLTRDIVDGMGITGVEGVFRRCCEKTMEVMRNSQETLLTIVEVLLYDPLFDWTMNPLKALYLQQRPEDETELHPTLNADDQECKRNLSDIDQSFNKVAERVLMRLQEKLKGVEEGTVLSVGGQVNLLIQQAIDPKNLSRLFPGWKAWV
Chain of ATM (phospho-ATM Ser1981) in SN38 treated HT-29 cells (Q13315 whole entry, looked up): as above

SMILES | IC50 (ATM) [µM] | IC50 (PIK3Cγ (pp110γ); read-out: PI3Kγ IC50) [µM] | IC50 (PIK3Cδ; read-out: PI3Kδ IC50) [µM] | IC50 (DNA-PK) [µM] | IC50 (PIK3Cβ (p110β); read-out: PI3Kβ IC50) [µM] | IC50 (ATR) [µM] | IC50 (PI3Kα (p110α/p85a); read-out: PI3Kα IC50) [µM] | IC50 (mTOR; read-out: mTor IC50) [µM] | also measured
CC(C)n1c(=O)n(C)c2cnc3cc(F)c(-c4ccc(OCCCN5CCCCC5)nc4)cc3c21 [AZD1390] |  |  |  |  |  |  |  |  | AO substrate classification (aldehyde oxidase (AO) [1]; human liver cytosol): strong AO substrate
CC(C)n1c(=O)n(C)c2nnc3ccc(-c4ccc(COCCN5CCC(C)(C)CC5)nc4)cc3c21 [Example 31, 8-(6-((2-(4,4-dimethylpiperidin-1-yl)ethoxy)methyl)pyridin-3-yl)-1-isopropyl-3-methyl-1H-imidazo[4,5-c]cinnolin-2(3H)-one] | 0.011 | > 10 | > 10 | > 10 | > 10 | > 10 | > 10 | > 10 | IC50 [2]: 0.029 µM; IC50 [3]: 0.016 µM
COC1CCN(CCO[C@H](C)c2ccc(-c3ccc4nnc5c(c4c3)n(C(C)C)c(=O)n5C)cn2)CC1 [Example 56, (R)-1-isopropyl-8-(6-(1-(2-(4-methoxypiperidin-1-yl)ethoxy)ethyl)pyridin-3-yl)-3-methyl-1H-imidazo[4,5-c]cinnolin-2(3H)-one] | 0.0032 | > 10 | > 10 | > 10 | > 10 | > 10 | > 10 | > 10 | 
CC(C)n1c(=O)n(C)c2nnc3ccc(-c4ccc([C@@H](C)OCCN5CC[C@@H](OC6CC6)C5)nc4)cc3c21 [Example 76, 8-(6-((R)-1-(2-((R)-3-cyclopropoxypyrrolidin-1-yl)ethoxy)ethyl)pyridin-3-yl)-1-isopropyl-3-methyl-1H-imidazo[4,5-c]cinnolin-2(3H)-one] |  |  |  | > 10 |  | > 10 |  |  | IC50 (PIK3Cγ (pp110γ)): > 10 µM; IC50 (PIK3Cδ): > 10 µM; IC50 (PIK3Cβ (p110β)): > 10 µM; IC50 (PI3Kα (p110α/p85a)): > 10 µM; IC50 (mTOR): > 10 µM
CC(C)n1c(=O)n(C)c2nnc3ccc(-c4ccc([C@@H](C)OCCN5CC[C@@H](C)C5)nc4)cc3c21 [Example 77, 1-isopropyl-3-methyl-8-(6-((R)-1-(2-((R)-3-methylpyrrolidin-1-yl)ethoxy)ethyl)pyridin-3-yl)-1H-imidazo[4,5-c]cinnolin-2(3H)-one] | 0.0048 | > 10 | > 10 | > 10 | > 10 | > 10 | > 10 | > 10 | 
CO[C@H]1C[C@H](n2c(=O)n(C)c3nnc4ccc(-c5ccc([C@@H](C)OCCN6CCCC6)nc5)cc4c32)C1 [Example 162, 1-(trans-3-methoxycyclobutyl)-3-methyl-8-(6-((R)-1-(2-(pyrrolidin-1-yl)ethoxy)ethyl)pyridin-3-yl)-1,3-dihydro-2H-imidazo[4,5-c]cinnolin-2-one] | 0.007 | > 10 | > 10 | > 10 | > 10 | > 10 | > 10 | > 10 | IC50 [2]: 0.0055 µM
CC(C)n1c(=O)n(C)c2nnc3ccc(-c4ccc([C@H](OCCN5CCCC5)C(F)(F)F)nc4)cc3c21 [Example 184, (S)-1-isopropyl-3-methyl-8-(6-(2,2,2-trifluoro-1-(2-(pyrrolidin-1-yl)ethoxy)ethyl)pyridin-3-yl)-1,3-dihydro-2H-imidazo[4,5-c]cinnolin-2-one] | 0.0028 | > 10 | > 10 | > 10 | > 10 | > 10 | > 10 | > 10 | 
CC(C)n1c(=O)n(C)c2nnc3ccc(-c4ccc([C@@H](OCCN5CCCC5)C(F)(F)F)nc4)cc3c21 [Example 185, (R)-1-isopropyl-3-methyl-8-(6-(2,2,2-trifluoro-1-(2-(pyrrolidin-1-yl)ethoxy)ethyl)pyridin-3-yl)-1,3-dihydro-2H-imidazo[4,5-c]cinnolin-2-one] | 0.292 | > 10 | > 10 | > 10 | > 10 | > 10 | > 10 | > 10 | 
OCCn1cc(-c2cnc3nnn(Cc4ccc5ncccc5c4)c3n2)cn1 [PF-04217903, 2-[4-[3-(quinolin-6-ylmethyl)triazolo[4,5-b]pyrazin-5-yl]pyrazol-1-yl]ethanol] |  |  |  |  |  |  |  |  | AO substrate classification (reported) (aldehyde oxidase (AO) [4]): weak AO substrate
CCN(C(C)=O)c1cccc(-c2ccnc3c(C#N)cnn23)c1 [Reference compound 4, Zaleplon] |  |  |  |  |  |  |  |  | microsomal CLint (aldehyde oxidase (AO) [1]; human, cytosol): 0.893 µL/min/mg; clearance in humans [5]: 16 mL/min/kg; clearance in humans corresponding to liver blood flow [5]: ~80 % liver blood flow
OCCn1cc(-c2cnc3nnn(Cc4ccc5ncccc5c4)c3n2)cn1 [Reference compound 5, PF-04217903] |  |  |  |  |  |  |  |  | clearance in humans [5]: 6 mL/min/kg; clearance in humans corresponding to liver blood flow [5]: ~30 % liver blood flow
CCN(C(C)=O)c1cccc(-c2ccnc3c(C#N)cnn23)c1 [Zaleplon, N-[3-(3-cyanopyrazolo[1,5-a]pyrimidin-7-yl)phenyl]-N-ethylacetamide] |  |  |  |  |  |  |  |  | AO substrate classification (reported) (aldehyde oxidase (AO) [4]): strong AO substrate
